Test results from publication PMC6513986, “Molecular basis for heat desensitization of TRPV1 ion channels” (Nature Communications, 2019).
Like-named read-outs stand apart in the source and are kept apart here.

Key:
mV1 CΔ30 (Glu747-Phe776) = mV1 CΔ30 (Glu747-Phe776) (Mus musculus, UniProt Q704Y3, DEL747-776); experiment: Agonist activation, patch clamp, HEK293T; type: cell-based; conditions: read-out: EC50_Capsaicin
rTRPV1 = system: rTRPV1; design: method as in Sanchez-Moreno et al; conditions: 4 μM capsaicin, ref Sanchez-Moreno et al; cited from earlier work
mV1_654 (ANAP) = mV1_654 (ANAP) (Mus musculus, UniProt Q704Y3, Y654X); experiment: Agonist activation of ANAP-incorporated channel, patch clamp; type: cell-based
mV1 P836A = mV1 P836A (Mus musculus, UniProt Q704Y3, P836A); experiment: Agonist activation, patch clamp, HEK293T; type: cell-based; conditions: read-out: EC50_Capsaicin
mV1 K831A = mV1 K831A (Mus musculus, UniProt Q704Y3, K831A); experiment: Agonist activation, patch clamp, HEK293T; type: cell-based; conditions: read-out: EC50_Capsaicin
pV1_643 (ANAP) = pV1_643 (ANAP) (Ornithorhynchus anatinus, UniProt F7A7B4, S634X)
mV1_685 (ANAP) = mV1_685 (ANAP) (Mus musculus, UniProt Q704Y3, E685X); experiment: Agonist activation of ANAP-incorporated channel, patch clamp; type: cell-based
pV1_241 (ANAP) = pV1_241 (ANAP) (Ornithorhynchus anatinus, UniProt F7A7B4); experiment: as above; type: cell-based, platypus
TRPV1 = conditions: cited from earlier work
Polar bear TRPV1 = Polar bear TRPV1 (Ursus maritimus, UniProt A0A384CG69); experiment: Agonist activation, patch clamp, HEK293T; type: cell-based; conditions: read-out: EC50_Capsaicin
mV1 M834A = mV1 M834A (Mus musculus, UniProt Q704Y3, M834A); experiment: Agonist activation, patch clamp, HEK293T; type: cell-based; conditions: read-out: EC50_Capsaicin
[1] = system: DRG neurons of p-trpv1 mice; experiment: Patch clamp of DRG neurons of p-trpv1 mice; type: cell-based, mouse; conditions: small diameter DRG neurons, patch clamping
Experimental: All recordings were performed at room temperature.
DRG neurons were acutely dissociated and maintained in a short-term primary culture according to procedures. Briefly, after mice were killed by CO2 inhalation and decapitated, vertebral column was opened by a dorsal approach. DRG neurons were collected using fine forceps from both sides of the spinal column and transferred into DMEM medium (GIBCO), and the spinal nerves were cut off using fine ophthalmological scissors and digested by […] (m/m, Sigma) for 20 min. Following the wash of collagenase and trypsin, DRG neurons were incubated at 37 °C in 5% CO2. Cells were used for electrophysiological experiments within the next 24 h.

mV1_630 (ANAP) = mV1_630 (ANAP) (Mus musculus, UniProt Q704Y3, S630X); experiment: Agonist activation of ANAP-incorporated channel, patch clamp; type: cell-based
mV1_241 (ANAP) = mV1_241 (ANAP) (Mus musculus, UniProt Q704Y3, K241X); experiment: as above; type: cell-based
mV1 T371G = mV1 T371G (Mus musculus, UniProt Q704Y3, T371G); experiment: Agonist activation, patch clamp, HEK293T; type: cell-based; conditions: read-out: EC50_Capsaicin
mV1 E838A = mV1 E838A (Mus musculus, UniProt Q704Y3, E838A); experiment: Agonist activation, patch clamp, HEK293T; type: cell-based; conditions: read-out: EC50_Capsaicin
mV1 F830A = mV1 F830A (Mus musculus, UniProt Q704Y3, F830A); experiment: Agonist activation, patch clamp, HEK293T; type: cell-based; conditions: read-out: EC50_Capsaicin
pV1_mC chimera = pV1_mC chimera (Ornithorhynchus anatinus, UniProt F7A7B4); experiment: Agonist activation, patch clamp, HEK293T; type: cell-based, platypus / mouse; conditions: read-out: EC50_Capsaicin
mV1 CΔ23 (Ser777-Asp799) = mV1 CΔ23 (Ser777-Asp799) (Mus musculus, UniProt Q704Y3, DEL777-799); experiment: Agonist activation, patch clamp, HEK293T; type: cell-based; conditions: read-out: EC50_Capsaicin
pV1_mN chimera = pV1_mN chimera (Ornithorhynchus anatinus, UniProt F7A7B4); experiment: Agonist activation, patch clamp, HEK293T; type: cell-based, platypus / mouse; conditions: read-out: EC50_Capsaicin
pV1_mN chimera, sequence (F7A7B4 436-842, change not shown): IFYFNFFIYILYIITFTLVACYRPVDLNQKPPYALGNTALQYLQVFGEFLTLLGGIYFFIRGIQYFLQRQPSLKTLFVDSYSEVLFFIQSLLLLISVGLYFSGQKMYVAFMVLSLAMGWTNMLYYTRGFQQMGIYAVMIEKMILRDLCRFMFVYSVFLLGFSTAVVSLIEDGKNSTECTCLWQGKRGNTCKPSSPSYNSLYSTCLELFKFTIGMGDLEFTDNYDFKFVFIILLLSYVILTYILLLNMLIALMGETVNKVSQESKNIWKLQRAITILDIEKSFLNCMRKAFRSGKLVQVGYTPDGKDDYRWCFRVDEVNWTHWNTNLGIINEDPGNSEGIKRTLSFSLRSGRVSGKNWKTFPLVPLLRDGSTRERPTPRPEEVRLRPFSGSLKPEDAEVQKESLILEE
pV1_mN chimera, sequence (Q704Y3 1-433 partner): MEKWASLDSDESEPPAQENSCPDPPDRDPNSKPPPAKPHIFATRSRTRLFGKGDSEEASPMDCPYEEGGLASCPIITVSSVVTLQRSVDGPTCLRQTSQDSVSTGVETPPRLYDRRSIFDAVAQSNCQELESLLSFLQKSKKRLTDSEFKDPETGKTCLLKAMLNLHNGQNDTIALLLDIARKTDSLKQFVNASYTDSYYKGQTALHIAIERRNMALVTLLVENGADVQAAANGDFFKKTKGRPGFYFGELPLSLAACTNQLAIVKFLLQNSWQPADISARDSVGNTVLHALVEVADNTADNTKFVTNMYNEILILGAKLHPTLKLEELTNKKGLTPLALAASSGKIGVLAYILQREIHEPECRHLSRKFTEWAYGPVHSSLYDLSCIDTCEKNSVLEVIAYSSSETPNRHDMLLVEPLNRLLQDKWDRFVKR

mV1 E838A, sequence (Q704Y3 whole entry E838A): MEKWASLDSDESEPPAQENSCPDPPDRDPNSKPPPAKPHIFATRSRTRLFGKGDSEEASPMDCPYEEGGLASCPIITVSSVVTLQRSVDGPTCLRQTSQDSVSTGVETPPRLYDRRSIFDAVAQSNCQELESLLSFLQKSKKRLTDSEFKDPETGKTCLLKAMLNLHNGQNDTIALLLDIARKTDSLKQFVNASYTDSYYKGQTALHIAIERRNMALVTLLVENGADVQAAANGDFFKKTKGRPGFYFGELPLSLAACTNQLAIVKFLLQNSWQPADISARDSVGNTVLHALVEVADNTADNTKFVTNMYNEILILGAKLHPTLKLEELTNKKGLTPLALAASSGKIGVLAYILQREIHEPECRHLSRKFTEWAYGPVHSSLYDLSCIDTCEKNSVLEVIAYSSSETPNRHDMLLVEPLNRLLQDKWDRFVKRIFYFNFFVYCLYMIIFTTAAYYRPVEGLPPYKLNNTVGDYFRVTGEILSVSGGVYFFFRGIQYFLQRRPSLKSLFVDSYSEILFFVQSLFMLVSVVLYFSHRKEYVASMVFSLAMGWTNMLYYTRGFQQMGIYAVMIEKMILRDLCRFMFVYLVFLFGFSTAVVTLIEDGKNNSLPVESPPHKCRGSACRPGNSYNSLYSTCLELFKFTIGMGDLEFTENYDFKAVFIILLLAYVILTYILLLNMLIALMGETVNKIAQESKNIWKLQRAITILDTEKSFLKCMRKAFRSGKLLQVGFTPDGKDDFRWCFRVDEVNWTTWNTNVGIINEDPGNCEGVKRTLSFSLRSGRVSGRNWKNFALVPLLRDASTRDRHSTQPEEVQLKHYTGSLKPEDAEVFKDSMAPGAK
mV1 M834A, sequence (Q704Y3 whole entry M834A): as the sequence (Q704Y3 whole entry E838A) above, with M834A, A838E counted along it
mV1 K831A, sequence (Q704Y3 whole entry K831A): as the sequence (Q704Y3 whole entry E838A) above, with K831A, A838E counted along it
mV1 CΔ23 (Ser777-Asp799), sequence (Q704Y3 with tags, fused parts or gaps DEL777-799): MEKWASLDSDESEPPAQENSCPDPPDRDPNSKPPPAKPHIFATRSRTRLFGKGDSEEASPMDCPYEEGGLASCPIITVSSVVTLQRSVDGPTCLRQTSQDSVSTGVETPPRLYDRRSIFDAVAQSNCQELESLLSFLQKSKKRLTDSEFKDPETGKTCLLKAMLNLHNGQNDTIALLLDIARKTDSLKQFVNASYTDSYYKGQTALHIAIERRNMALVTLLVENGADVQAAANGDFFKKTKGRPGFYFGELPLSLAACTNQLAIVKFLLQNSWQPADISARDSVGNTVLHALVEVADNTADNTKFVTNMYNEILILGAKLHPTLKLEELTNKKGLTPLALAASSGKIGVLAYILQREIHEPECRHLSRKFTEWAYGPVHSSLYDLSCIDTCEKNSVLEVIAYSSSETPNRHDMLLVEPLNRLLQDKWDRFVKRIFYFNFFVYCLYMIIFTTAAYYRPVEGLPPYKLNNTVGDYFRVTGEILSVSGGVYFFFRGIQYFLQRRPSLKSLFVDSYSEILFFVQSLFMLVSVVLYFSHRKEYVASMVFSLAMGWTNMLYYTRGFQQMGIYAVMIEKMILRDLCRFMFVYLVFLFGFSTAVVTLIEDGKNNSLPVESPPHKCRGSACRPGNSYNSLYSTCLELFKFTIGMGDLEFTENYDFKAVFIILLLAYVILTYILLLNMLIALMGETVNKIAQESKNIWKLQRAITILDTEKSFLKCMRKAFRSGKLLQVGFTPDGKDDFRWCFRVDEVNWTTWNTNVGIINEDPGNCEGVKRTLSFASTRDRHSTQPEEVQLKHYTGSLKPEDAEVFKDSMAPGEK
mV1 CΔ30 (Glu747-Phe776), sequence (Q704Y3 with tags, fused parts or gaps DEL747-776): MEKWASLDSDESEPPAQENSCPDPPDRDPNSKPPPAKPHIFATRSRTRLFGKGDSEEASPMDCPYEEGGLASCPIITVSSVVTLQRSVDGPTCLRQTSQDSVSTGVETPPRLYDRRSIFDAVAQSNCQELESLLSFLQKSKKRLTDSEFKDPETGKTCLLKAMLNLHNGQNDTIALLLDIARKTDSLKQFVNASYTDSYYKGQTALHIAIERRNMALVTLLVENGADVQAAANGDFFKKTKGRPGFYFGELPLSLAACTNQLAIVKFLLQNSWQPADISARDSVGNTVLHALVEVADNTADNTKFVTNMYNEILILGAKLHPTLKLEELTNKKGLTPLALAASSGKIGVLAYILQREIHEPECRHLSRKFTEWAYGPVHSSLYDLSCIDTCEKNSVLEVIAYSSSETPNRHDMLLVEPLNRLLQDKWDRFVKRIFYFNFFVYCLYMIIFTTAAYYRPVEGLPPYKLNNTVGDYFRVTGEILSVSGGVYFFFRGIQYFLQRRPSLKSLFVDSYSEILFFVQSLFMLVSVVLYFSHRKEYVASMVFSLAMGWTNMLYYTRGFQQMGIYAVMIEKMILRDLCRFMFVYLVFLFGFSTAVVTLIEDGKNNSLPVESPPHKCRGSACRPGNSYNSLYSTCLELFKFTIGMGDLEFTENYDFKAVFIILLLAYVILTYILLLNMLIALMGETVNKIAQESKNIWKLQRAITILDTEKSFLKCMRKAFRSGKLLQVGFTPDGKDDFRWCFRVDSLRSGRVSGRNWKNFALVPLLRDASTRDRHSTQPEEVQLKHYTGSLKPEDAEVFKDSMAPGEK
mV1 T371G, sequence (Q704Y3 whole entry T371G): as the sequence (Q704Y3 whole entry E838A) above, with T371G, A838E counted along it
Polar bear TRPV1, sequence (A0A384CG69 1-841): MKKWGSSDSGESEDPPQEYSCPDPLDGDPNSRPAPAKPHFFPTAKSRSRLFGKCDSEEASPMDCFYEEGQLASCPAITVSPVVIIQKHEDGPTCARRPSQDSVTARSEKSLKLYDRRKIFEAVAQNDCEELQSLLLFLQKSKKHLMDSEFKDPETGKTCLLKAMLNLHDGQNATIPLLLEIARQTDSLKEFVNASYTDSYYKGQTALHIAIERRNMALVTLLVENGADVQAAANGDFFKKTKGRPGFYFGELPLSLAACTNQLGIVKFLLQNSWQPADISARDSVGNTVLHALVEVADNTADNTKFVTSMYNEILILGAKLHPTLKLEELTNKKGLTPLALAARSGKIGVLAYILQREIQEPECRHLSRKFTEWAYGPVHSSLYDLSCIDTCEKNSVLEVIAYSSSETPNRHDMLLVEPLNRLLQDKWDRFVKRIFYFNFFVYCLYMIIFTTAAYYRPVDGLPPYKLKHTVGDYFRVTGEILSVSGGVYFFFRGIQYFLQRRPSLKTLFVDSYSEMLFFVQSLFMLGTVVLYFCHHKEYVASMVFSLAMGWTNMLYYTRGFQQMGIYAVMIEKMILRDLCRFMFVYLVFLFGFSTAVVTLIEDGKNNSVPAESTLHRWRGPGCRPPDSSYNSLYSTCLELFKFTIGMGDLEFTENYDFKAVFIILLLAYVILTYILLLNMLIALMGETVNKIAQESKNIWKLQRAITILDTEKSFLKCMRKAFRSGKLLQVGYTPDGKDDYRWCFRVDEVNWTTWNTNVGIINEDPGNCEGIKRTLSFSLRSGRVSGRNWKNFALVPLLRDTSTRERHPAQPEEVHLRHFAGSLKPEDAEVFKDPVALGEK
mV1 F830A, sequence (Q704Y3 whole entry F830A): as the sequence (Q704Y3 whole entry E838A) above, with F830A, A838E counted along it
mV1 P836A, sequence (Q704Y3 whole entry P836A): as the sequence (Q704Y3 whole entry E838A) above, with P836A, A838E counted along it

`COc1cc(CNC(=O)CCCC/C=C/C(C)C)ccc1O` [Capsaicin, capsaicin] gave an EC50 (mV1 CΔ30 (Glu747-Phe776); mean ± s.e.m., n = 5) of 372 nM, an EC50 (mV1 CΔ30 (Glu747-Phe776); replicate 1) of 252 nM and an EC50 (mV1 CΔ30 (Glu747-Phe776); replicate 2) of 260 nM. For the same compound, the EC50 (mV1 CΔ30 (Glu747-Phe776); replicate 3) was 424 nM, the EC50 (mV1 CΔ30 (Glu747-Phe776); replicate 4) was 463 nM and the EC50 (mV1 CΔ30 (Glu747-Phe776); replicate 5) was 461 nM. For the same compound, the “capsaicin sensitivity of heat-desensitized rTRPV1” value (rTRPV1) was “insensitive”, the EC50 (mV1_654 (ANAP)) was 304 nM and the EC50_Capsaicin (mV1_654 (ANAP); replicate 1) was 324 nM. It also gave an EC50_Capsaicin (mV1_654 (ANAP); replicate 2) of 298 nM, an EC50_Capsaicin (mV1_654 (ANAP); replicate 3) of 284 nM and an EC50_Capsaicin (mV1_654 (ANAP); replicate 4) of 310 nM. The EC50_Capsaicin (mV1_654 (ANAP); replicate 5) was 267 nM, the EC50_Capsaicin (mV1_654 (ANAP); replicate 6) was 341 nM and the EC50 (mV1 P836A; mean ± s.e.m., n = 3) was 315 nM. For the same compound, the EC50 (mV1 P836A; replicate 1) was 262 nM, the EC50 (mV1 P836A; replicate 2) was 364 nM and the EC50 (mV1 K831A; mean ± s.e.m., n = 3) was 354 nM. It also gave an EC50 (mV1 K831A; replicate 1) of 417 nM, an EC50 (mV1 K831A; replicate 2) of 355 nM and an EC50 (mV1 K831A; replicate 3) of 290 nM. It also gave an EC50_Capsaicin (pV1_643 (ANAP); replicate 1) of 323 nM, an EC50_Capsaicin (pV1_643 (ANAP); replicate 2) of 276 nM and an EC50_Capsaicin (pV1_643 (ANAP); replicate 3) of 290 nM. The EC50_Capsaicin (pV1_643 (ANAP); replicate 4) was 327 nM, the EC50_Capsaicin (pV1_643 (ANAP); replicate 6) was 351 nM and the EC50 (mV1_685 (ANAP)) was 295 nM. For the same compound, the EC50_Capsaicin (mV1_685 (ANAP); replicate 1) was 321 nM, the EC50_Capsaicin (mV1_685 (ANAP); replicate 3) was 335 nM and the EC50_Capsaicin (mV1_685 (ANAP); replicate 4) was 287 nM. It also gave an EC50_Capsaicin (mV1_685 (ANAP); replicate 5) of 299 nM, an EC50_Capsaicin (mV1_685 (ANAP); replicate 6) of 268 nM and an EC50_Capsaicin (mV1_685 (ANAP); replicate 7) of 335 nM. It also gave an EC50_Capsaicin (mV1_685 (ANAP); replicate 8) of 254 nM, an EC50_Capsaicin (pV1_241 (ANAP); replicate 3) of 288 nM and an EC50_Capsaicin (pV1_241 (ANAP); replicate 5) of 322 nM. For the same compound, the EC50_Capsaicin (pV1_241 (ANAP); replicate 6) was 342 nM, the “effect of capsaicin administration” value (TRPV1) was “a burning sensation and acute drop in body core temperature (hypothermia)” and the EC50 (Polar bear TRPV1; mean ± s.e.m., n = 3) was 313 nM. It also gave an EC50 (Polar bear TRPV1; replicate 1) of 262 nM, an EC50 (Polar bear TRPV1; replicate 2) of 336 nM and an EC50 (Polar bear TRPV1; replicate 3) of 341 nM. It also gave an EC50 (mV1 M834A; mean ± s.e.m., n = 3) of 329 ± 23 nM, an EC50 (mV1 M834A; replicate 1) of 280 nM and an EC50 (mV1 M834A; replicate 2) of 378 nM. For the same compound, the EC50 (mV1 M834A; replicate 3) was 329 nM, the response to capsaicin [1] was “well maintained” and the EC50 (mV1_630 (ANAP)) was 299 nM. The EC50_Capsaicin (mV1_630 (ANAP); replicate 1) was 325 nM, the EC50_Capsaicin (mV1_630 (ANAP); replicate 2) was 289 nM and the EC50_Capsaicin (mV1_630 (ANAP); replicate 3) was 310 nM. It also gave an EC50_Capsaicin (mV1_630 (ANAP); replicate 4) of 272 nM, an EC50 (mV1_241 (ANAP)) of 290 nM and an EC50_Capsaicin (mV1_241 (ANAP); replicate 1) of 256 nM. The EC50_Capsaicin (mV1_241 (ANAP); replicate 2) was 283 nM, the EC50_Capsaicin (mV1_241 (ANAP); replicate 3) was 296 nM and the EC50_Capsaicin (mV1_241 (ANAP); replicate 4) was 299 nM. It also gave an EC50_Capsaicin (mV1_241 (ANAP); replicate 5) of 316 nM, an EC50 (mV1 T371G; mean ± s.e.m., n = 3) of 322 nM and an EC50 (mV1 T371G; replicate 1) of 349 nM. The EC50 (mV1 T371G; replicate 2) was 332 nM, the EC50 (mV1 E838A; mean ± s.e.m., n = 3) was 565 nM and the EC50 (mV1 E838A; replicate 1) was 660 nM. It also gave an EC50 (mV1 E838A; replicate 2) of 597 nM, an EC50 (mV1 E838A; replicate 3) of 438 nM and an EC50 (mV1 F830A; mean ± s.e.m., n = 3) of 338 nM. The EC50 (mV1 F830A; replicate 1) was 286 nM, the EC50 (mV1 F830A; replicate 2) was 398 nM and the EC50 (mV1 F830A; replicate 3) was 330 nM. The EC50 (pV1_mC chimera; mean ± s.e.m., n = 6) was 310 nM, the EC50 (pV1_mC chimera; replicate 3) was 388 nM and the EC50 (pV1_mC chimera; replicate 4) was 257 nM. It also gave an EC50 (pV1_mC chimera; replicate 5) of 354 nM, an EC50 (pV1_mC chimera; replicate 6) of 300 nM and an EC50 (mV1 CΔ23 (Ser777-Asp799); mean ± s.e.m., n = 3) of 398 nM. The EC50 (mV1 CΔ23 (Ser777-Asp799); replicate 1) was 320 nM, the EC50 (mV1 CΔ23 (Ser777-Asp799); replicate 2) was 353 nM and the EC50 (mV1 CΔ23 (Ser777-Asp799); replicate 3) was 521 nM. For the same compound, the EC50 (pV1_mN chimera; mean ± s.e.m., n = 6) was 313 nM, the EC50 (pV1_mN chimera; replicate 2) was 294 nM and the EC50 (pV1_mN chimera; replicate 3) was 360 nM. For the same compound, the EC50 (pV1_mN chimera; replicate 5) was 279 nM.
